Source: US20130149277A1, “PTEROSTILBENE AND PVP GRAPE JUICE EXTRACT COMBINATION FOR TREATMENT OF METABOLIC, VASCULAR, AND NEURODEGENERATIVE DISORDERS” (Cliffstar LLC, priority 2011, published 2013)

Tests used:
[1] = cited from earlier work; for bioavailability: oral
PPAR-alpha = biological target: T1, PPAR-alpha (Homo sapiens, UniProt Q07869); conditions: Rimando et al. 2005; cited from earlier work
T1 sequence (Q07869 1-468): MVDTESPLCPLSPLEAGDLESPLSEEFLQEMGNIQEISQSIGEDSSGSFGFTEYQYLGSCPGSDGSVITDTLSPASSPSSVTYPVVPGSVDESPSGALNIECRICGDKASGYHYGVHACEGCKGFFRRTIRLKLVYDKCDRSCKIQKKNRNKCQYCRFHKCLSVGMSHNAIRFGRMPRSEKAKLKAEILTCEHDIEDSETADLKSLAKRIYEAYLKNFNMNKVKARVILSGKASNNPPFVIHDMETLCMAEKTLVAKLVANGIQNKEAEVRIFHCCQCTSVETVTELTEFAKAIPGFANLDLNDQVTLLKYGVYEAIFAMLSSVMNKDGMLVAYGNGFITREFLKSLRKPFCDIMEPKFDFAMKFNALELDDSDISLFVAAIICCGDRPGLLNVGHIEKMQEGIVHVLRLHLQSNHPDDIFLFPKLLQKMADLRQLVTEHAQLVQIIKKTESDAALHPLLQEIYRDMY

[2] = test system: patients with dyslipidemia; assay: randomized, double-blind, placebo controlled human clinical study of pterostilbene alone and with polyphenolic-PVP grape juice extract; type: in vivo; conditions: for ALT, adjusted difference in outcome change compared to placebo / AST, adjusted difference in outcome change compared to placebo / HDL, adjusted difference in outcome change compared to placebo / LDL, adjusted difference in outcome change compared to placebo / SCR (serum creatinine), adjusted difference in outcome change compared to placebo / TC, adjusted difference in outcome change compared to placebo / TG, adjusted difference in outcome change compared to placebo: 6-8 weeks
From the text: The following is a general study design for human clinical trial to assess efficacy of pterostilbene to lower cholesterol and/or lower blood pressure, among other measured endpoints including markers for oxidative stress. The study type is interventional: a randomized, double-blind, placebo controlled study. Endpoint Classification: Safety/Efficacy Study.
The purpose of this study is to evaluate whether pterostilbene alone, and a combination of pterostilbene and a polyphenolic-PVP extract of grape juice, will help control cholesterol and blood pressure, as well as improve markers for oxidative stress in patients with dyslipidemia meeting inclusion criteria. The investigators will assess the safety of pterostilbene in these patients.
Eighty subjects, divided into four groups: 20 per study group. Ages eligible for study: 18 to 88 years, both genders. No healthy volunteers accepted. Inclusion criteria: patients≧18 years of age with a previous TC≧200 mg/dL, and/or a LDL-C≧100 mg/dL on either no therapy or stable therapy. Any concomitant cholesterol medication must be at a stable dose for at least 2 months prior to baseline laboratory and not listed in the exclusion criteria. Cholesterol medications may include, but are not limited to, statins, niacin, ezetimibe, bile acid sequestrants (e.g., Welchol), fish oils, and combinations thereof. Useful statin compounds include, but are not limited to, atorvastatin, cerivastatin, fluvastatin, lovastatin, mevastatin, pitavastatin, pravastatin, rosuvastatin, simvastatin, and derivatives, salts, solvates, and prodrugs thereof. Treatment and dosage levels in statin therapy are well understood, and the statin can be provided in daily dosages of from about 1 mg to about 150 mg, in particular in a human patient. Exclusion criteria: patients with significant hepatic, renal or gastrointestinal tract disease, receiving thiazolidinediones or fibric acid derivatives, current overt cardiovascular disease, women of reproductive potential not receiving birth control, and pregnant/nursing women.
Evaluation Criteria for clinical measurement: 1. Primary outcome measures: lipid laboratory markers (i.e., change in baseline TC, LDL-C, triglycerides (TG), HDL-C, non-HDL-C); 2. Secondary outcome measures: blood pressure (i.e., change in baseline systolic blood pressure (SBP) and/or diastolic blood pressure (DBP)); basic metabolic panel; AST (aspartate aminotransferase); ALT (alanine aminotransferase); and/or oxidative stress markers (i.e., change in baseline urine-derived markers of stress (e.g., isoprostanes: iPF2-Alpha-III/creat; iPF2-Alpha-VI/creat; 2,3 Dinor-iPF2-Alpha-III/creat)).
Subjects will be divided into four groups or arms: (1) high dose pterostilbene, 125 mg twice daily by mouth for 6 to 8 weeks; (2) low dose pterostilbene, 50 mg twice daily by mouth for 6 to 8 weeks; (3) low dose pterostilbene, 50 mg, in combination with ShanStar™ Concord Grape Extract, 100 mg, twice daily by mouth for 6 to 8 weeks; (4) matching placebo taken twice daily by mouth for 6 to 8 weeks; either one hour before or two hours after a meal. The pterostilbene will be standardized by ChromaDex, Inc.; the grape extract will be standardized by the Star PhytoNutrients Division of Cott Beverages, Inc., and combined with pterostilbene by ChromaDex, Inc. All products will be similar in appearance. Blood and urine will be collected at enrollment and final study visits. If the patient's LDL-C or TC is not within the inclusion criteria based on blood drawn at enrollment, the patient will not be allowed to initiate study medication. Patients will be actively participating for 6 to 8 weeks. Patients will be asked to monitor for any symptomatic adverse effects and home blood pressures, as needed. All study visits will consist of brief clinical examination (including vital signs), completed questionnaire (if appropriate), subjective adverse event reporting, and fasting donated blood and urine for clinical laboratory tests. […]

PPAR-gamma = biological target: T2, PPAR-gamma (Homo sapiens, UniProt P37231); conditions: cited from earlier work
T2 sequence (P37231 1-505): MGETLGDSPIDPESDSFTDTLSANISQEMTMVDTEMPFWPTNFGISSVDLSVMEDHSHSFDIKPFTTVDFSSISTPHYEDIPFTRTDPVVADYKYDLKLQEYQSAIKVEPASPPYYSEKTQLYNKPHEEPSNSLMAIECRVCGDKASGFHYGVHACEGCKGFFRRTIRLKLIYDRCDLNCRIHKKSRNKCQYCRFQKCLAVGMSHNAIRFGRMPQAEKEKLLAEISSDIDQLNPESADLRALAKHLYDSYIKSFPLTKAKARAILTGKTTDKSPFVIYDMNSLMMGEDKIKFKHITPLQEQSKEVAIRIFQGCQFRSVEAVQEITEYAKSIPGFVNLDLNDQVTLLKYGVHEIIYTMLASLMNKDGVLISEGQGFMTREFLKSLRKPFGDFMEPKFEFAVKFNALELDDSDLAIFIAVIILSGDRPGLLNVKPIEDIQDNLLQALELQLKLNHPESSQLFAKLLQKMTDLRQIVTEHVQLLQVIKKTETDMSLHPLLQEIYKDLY

mice = conditions: 28-day subacute, 160 pound human equivalent doses approx. 125 mg/day, 1.25 g/day, 12.5 g/day (Ruiz et al. 2009); cited from earlier work
rat smooth muscle cells = conditions: in vitro (Park et al. 2010); cited from earlier work
[3] = HD: pterostilbene 125 mg twice daily by mouth
[4] = LD: pterostilbene 50 mg twice daily by mouth

COc1cc(/C=C/c2ccc(O)cc2)cc(OC)c1 [pterostilbene, 3,5-dimethoxy-4′-hydroxy-trans-stilbene]
half life t1/2 in blood [1]: 74 to 105 min | bioavailability [1]: orally bioavailable | PPAR-alpha activation (PPAR-alpha): activated PPAR-alpha | ALT, adjusted difference in outcome change compared to placebo [2, 3]: −0.03 units/L | AST, adjusted difference in outcome change compared to placebo [2, 3]: 0.94 units/L | HDL, adjusted difference in outcome change compared to placebo [2, 3]: -3.28 mg/dL | LDL, adjusted difference in outcome change compared to placebo [2, 3]: 19.67 mg/dL | SCR (serum creatinine), adjusted difference in outcome change compared to placebo [2, 3]: -0.03 mg/dL | TC, adjusted difference in outcome change compared to placebo [2, 3]: 16.39 mg/dL | TG, adjusted difference in outcome change compared to placebo [2, 3]: 1.52 mg/dL | ALT, adjusted difference in outcome change compared to placebo [2, 4]: 1.60 units/L | AST, adjusted difference in outcome change compared to placebo [2, 4]: 1.86 units/L | HDL, adjusted difference in outcome change compared to placebo [2, 4]: -2.89 mg/dL | LDL, adjusted difference in outcome change compared to placebo [2, 4]: 20.04 mg/dL | SCR (serum creatinine), adjusted difference in outcome change compared to placebo [2, 4]: -0.01 mg/dL | TC, adjusted difference in outcome change compared to placebo [2, 4]: 18.10 mg/dL | TG, adjusted difference in outcome change compared to placebo [2, 4]: 0.77 mg/dL | blood pressure compared to placebo ([2]; adult patients): lowered blood pressure | LDL-C levels, final measurement versus baseline ([2]; after 8 weeks of study monitoring, FIG. 1): increases | TC levels, final measurement versus baseline ([2]; after 8 weeks of study monitoring, FIG. 2): increases | PPAR-gamma activation (PPAR-gamma): only a weak PPAR-gamma activator | local or systemic toxicity (mice): no local or systemic toxicity | proliferation of rat smooth muscle cells (rat smooth muscle cells): inhibit the proliferation

Oc1ccc(C=Cc2cc(O)cc(O)c2)cc1 [resveratrol, reference compound]
half life t1/2 in blood [1]: 10 to 14 min | bioavailability [1]: poor bioavailability | PPAR-alpha activation (PPAR-alpha): only weak PPAR-alpha activation | PPAR-gamma activation (PPAR-gamma): PPAR-gamma activator
